These results are taken from patent publication US20240210412A1, “SULFONYL-TRIAZOLE COMPOUNDS USEFUL AS LIGANDS AND INHIBITORS OF PROSTAGLANDIN REDUCTASE 2” (University of Virginia Patent Foundation, priority 2021, published 2024).

Assay in all cases: SILAC LC-MS ABPP
What all share (settings): 25 μM 2 h, live DM93 cells

One experiment concerns the target T1, P12081 (Homo sapiens, UniProt P12081).
T1 construct: endogenous in cells; host or cells: DM93 cells (SILAC)
The experiment is classed as cell-based. A digest of the protocol:
(§1)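 DM93 SILAC cells, ligand 25 μM vs DMSO, 2 h; HHS-475 100 μM, 2 h; CuAAC desthiobiotin tag; 1:1 pool; trypsin; avidin enrichment; LC-MS/MS site quantification.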

For another experiment, the target named is T2, Q12931 (Homo sapiens, UniProt Q12931).
T2 construct: performing SuTEx compound screening directly in cells; endogenous in cells; host or cells: DM93 cells (SILAC)
T2 sequence (Q12931 60-704): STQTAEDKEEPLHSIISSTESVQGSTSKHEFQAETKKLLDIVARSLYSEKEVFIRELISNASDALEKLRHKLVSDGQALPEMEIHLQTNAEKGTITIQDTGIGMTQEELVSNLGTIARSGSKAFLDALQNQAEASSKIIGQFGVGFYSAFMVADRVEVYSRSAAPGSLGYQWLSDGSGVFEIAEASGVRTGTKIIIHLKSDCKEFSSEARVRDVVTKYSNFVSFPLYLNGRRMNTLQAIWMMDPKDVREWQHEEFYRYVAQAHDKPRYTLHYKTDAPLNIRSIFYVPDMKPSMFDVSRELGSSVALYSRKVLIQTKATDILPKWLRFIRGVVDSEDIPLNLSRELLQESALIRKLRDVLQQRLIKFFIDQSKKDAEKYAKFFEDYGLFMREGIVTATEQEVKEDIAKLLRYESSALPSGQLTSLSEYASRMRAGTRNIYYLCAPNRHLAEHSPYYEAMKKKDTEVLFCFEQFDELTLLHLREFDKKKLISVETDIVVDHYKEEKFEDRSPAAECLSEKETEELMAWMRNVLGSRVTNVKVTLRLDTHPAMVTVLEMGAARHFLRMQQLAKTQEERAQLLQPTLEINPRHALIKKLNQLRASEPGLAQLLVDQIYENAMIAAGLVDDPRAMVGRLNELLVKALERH
The experiment is classed as cell-based. A digest of the protocol: as §1

For a further experiment, the system named is Q8NFI4. The experiment is classed as cell-based, human. As to the method:
(§2) Cells were grown to 90-95% confluence before being washed once with warm, sterile DPBS (1×, 5 mL), followed by addition of 10 mL of serum-free media (supplemented with 1% L-glutamine) containing either DMSO or SuTEx fragment (in DMSO) was added. Light cells were treated with DMSO vehicle while the heavy cells were treated with DMSO or SuTEx fragment (in DMSO) and incubated for 2 hrs. After 2 hrs, the cells were treated with SuTEx alkyne probe (HHS475, 10 μL of 1000× DMSO stock) and incubated for an additional 2 hrs. The media was aspirated and cells washed with cold PBS (5 mL) and harvested. Cells were spun at 500×g for 5 min at 4° C. followed by removal of supernatant. Pellets were resuspended in 1 mL of cold DPBS and spun at 1,400×g for 3 min at 4° C. followed by removal of supernatant. The cells were lysed in PBS by sonication and fractionated (100,000×g, 45 min, 4° C.).The light and heavy soluble fractions were diluted to 2.3 mg/mL in PBS and 432 μL were used for analysis (1 mg total protein). The probe-modified proteomes were conjugated to desthiobiotin-PEG3-azide (10 μl of 10 mM stock in DMSO; 200 μM final concentration) using TCEP (10 μl of fresh 50 mM stock in water, 1 mM final concentration), TBTA ligand (33 μl of a 1.7 mM 4:1 t-butanol/DMSO stock, 100 μM final concentration) and CuSO4 (10 μl of 50 mM stock, 1 mM final concentration). Samples were vortexed to mix and incubated for 1 hr at room temperature. The heavy and light proteomes were mixed 1:1 and the subsequent steps, including LC-MS/MS data analysis, were performed as previously described^[8a].
(§3) Coupling cell-based screens with chemical proteomics can facilitate the identification of target protein and binding sites that engage and are irreversibly modified by covalent ligands^[12]. In these assays, covalent ligands block SuTEx activity-based probe (ABP) labeling at protein sites, and the competition of probe labeling can be used to quantify potency and selectivity across the proteome^[10a]. To facilitate quantitative chemical proteomics, DM93 melanoma cells were cultured using stable isotopic labeling by amino acids in cell culture (SILAC)^[13]. Cells cultured in “light” media were treated with dimethyl sulfoxide (DMSO) vehicle while cells cultured in “heavy” media were treated with SuTEx ligand (25 μM, 2 hours, 37° C.). Next, cells were treated with HHS-475 probe (100 μM, 2 hours, 37° C.) followed by lysis and processing of proteomes for analysis. Probe-modified proteins from the soluble fraction were conjugated to a desthiobiotin-azide tag by copper-catalyzed azide-alkyne cycloaddition (CuAAC)^[14] followed by mixing of the light and heavy proteomes. The combined proteomes were digested with trypsin protease to produce probe-modified peptides, followed by enrichment and purification by avidin affinity chromatography. Probe-modified peptides were resolved, identified, and quantified by high-resolution liquid chromatography-tandem mass spectrometry (LC-MS/MS). Resultant data were analyzed as previously described^[8a, 10a]. Table 2, below, lists sites of modification targeted by sulfonyl-triazole compounds HHS-0101, HHS-0201, HHS-0301, HHS-0401, and HHS-0701. The format of the table is as follows: protein Uniprot accession number (see uniprot.org); tyrosine site (amino acid position) modified; treatment (sulfonyl-triazole compound identification number, followed by Y (where if multiple compounds modify the same site, the compounds are separated by vertical lines).

The next experiment concerns A6NKT7. The experiment is classed as cell-based, human. As to the method:
as §2, §3

The subject of a further experiment is Q5VTE0. Type of experiment: cell-based, human. As to the method: as §2, §3
A further experiment relates to Q6IS14. Type of experiment: cell-based, human. As to the method: as §2, §3
In another experiment the target is T3, Q93052 (Homo sapiens, UniProt Q93052).
T3 construct: endogenous in cells; host or cells: DM93 cells (SILAC), live-cell treatment
T3 sequence (Q93052 1-612): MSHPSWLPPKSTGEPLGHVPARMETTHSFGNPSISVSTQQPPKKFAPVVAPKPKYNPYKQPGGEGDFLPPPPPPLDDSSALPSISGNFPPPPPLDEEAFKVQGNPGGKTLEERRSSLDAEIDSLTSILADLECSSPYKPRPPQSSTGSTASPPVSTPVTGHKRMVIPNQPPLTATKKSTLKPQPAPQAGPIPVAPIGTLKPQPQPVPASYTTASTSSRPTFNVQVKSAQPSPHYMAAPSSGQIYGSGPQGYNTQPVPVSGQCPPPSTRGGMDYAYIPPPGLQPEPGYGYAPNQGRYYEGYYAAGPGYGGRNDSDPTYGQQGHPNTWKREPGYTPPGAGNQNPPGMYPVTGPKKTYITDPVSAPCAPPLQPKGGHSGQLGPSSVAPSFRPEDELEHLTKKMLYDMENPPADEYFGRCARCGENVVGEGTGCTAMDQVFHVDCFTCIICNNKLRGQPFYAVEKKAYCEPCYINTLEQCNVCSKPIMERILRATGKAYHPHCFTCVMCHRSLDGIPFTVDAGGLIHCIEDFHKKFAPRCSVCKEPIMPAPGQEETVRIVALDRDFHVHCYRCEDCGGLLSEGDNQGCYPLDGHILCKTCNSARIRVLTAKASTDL
Type of experiment: cell-based. In outline: as §1

The next experiment has as its target T4, Q9Y5K6 (Homo sapiens, UniProt Q9Y5K6).
T4 construct: endogenous in cells; host or cells: DM93 cells (SILAC)
The experiment is classed as cell-based. A digest of the protocol:
as §1

For another experiment, the system named is Q9Y5K3. The experiment is classed as cell-based, human. As to the method:
as §2, §3

A further experiment has as its target T5, Q12965 (Homo sapiens, UniProt Q12965).
T5 construct: performing SuTEx compound screening directly in cells; endogenous in cells; host or cells: DM93 cells (SILAC)
The experiment is classed as cell-based. A digest of the protocol: as §1

A further experiment concerns the target T6, Q9BTC8 (Homo sapiens, UniProt Q9BTC8).
T6 construct: endogenous in cells; host or cells: DM93 cells (SILAC), treated live; soluble proteome analysed
Type of experiment: cell-based. In outline: as §1

For another experiment, the system named is O15523. Type of experiment: cell-based, human. As to the method: as §2, §3
A further experiment has as its system Q8N0Y7. Type of experiment: cell-based, human. As to the method: as §2, §3

T1 sequence (P12081 whole entry): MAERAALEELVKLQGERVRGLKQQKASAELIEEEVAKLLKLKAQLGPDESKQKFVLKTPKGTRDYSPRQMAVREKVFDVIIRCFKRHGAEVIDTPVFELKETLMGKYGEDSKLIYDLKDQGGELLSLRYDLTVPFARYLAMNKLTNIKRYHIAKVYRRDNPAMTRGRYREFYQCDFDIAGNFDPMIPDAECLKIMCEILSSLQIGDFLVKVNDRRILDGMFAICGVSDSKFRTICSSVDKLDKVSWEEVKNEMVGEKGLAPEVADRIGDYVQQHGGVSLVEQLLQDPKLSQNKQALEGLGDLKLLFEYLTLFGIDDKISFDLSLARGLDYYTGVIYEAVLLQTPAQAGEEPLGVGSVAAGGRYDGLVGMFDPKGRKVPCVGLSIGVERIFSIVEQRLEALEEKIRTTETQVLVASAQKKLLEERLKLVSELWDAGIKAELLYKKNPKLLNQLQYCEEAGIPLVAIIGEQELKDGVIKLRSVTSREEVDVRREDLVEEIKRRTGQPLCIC
T6 sequence (Q9BTC8 whole entry): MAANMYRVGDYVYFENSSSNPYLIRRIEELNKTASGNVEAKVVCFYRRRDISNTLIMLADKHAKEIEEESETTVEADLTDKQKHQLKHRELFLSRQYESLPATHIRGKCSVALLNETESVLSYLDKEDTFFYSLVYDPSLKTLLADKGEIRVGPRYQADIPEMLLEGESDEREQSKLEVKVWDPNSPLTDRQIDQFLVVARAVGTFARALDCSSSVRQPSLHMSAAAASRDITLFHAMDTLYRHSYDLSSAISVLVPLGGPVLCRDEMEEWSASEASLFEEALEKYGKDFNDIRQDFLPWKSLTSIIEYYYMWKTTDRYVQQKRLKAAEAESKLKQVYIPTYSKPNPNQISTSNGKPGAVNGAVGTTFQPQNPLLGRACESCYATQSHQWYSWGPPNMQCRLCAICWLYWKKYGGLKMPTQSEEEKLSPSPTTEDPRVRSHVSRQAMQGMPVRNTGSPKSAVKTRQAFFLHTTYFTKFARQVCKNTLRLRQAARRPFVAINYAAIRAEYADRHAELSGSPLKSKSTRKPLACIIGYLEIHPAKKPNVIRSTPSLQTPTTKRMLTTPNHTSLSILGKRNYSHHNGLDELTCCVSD
T4 sequence (Q9Y5K6 whole entry): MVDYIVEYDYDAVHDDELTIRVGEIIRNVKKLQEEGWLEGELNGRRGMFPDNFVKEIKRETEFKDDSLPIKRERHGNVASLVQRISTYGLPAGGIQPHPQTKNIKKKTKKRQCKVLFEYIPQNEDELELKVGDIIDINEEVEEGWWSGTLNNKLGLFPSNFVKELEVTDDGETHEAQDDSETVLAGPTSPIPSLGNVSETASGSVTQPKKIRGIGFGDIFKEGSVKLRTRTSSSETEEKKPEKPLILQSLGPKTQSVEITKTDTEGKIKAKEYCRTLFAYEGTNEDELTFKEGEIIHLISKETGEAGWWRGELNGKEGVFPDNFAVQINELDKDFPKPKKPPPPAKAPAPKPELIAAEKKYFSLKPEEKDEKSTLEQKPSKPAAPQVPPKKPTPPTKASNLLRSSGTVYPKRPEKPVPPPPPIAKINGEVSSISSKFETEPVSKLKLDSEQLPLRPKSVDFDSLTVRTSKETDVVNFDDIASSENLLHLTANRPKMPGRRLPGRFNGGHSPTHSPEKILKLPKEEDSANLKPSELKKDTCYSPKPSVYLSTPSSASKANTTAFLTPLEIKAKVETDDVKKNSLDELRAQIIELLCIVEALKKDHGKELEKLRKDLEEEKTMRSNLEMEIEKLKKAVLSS
T5 sequence (Q12965 whole entry): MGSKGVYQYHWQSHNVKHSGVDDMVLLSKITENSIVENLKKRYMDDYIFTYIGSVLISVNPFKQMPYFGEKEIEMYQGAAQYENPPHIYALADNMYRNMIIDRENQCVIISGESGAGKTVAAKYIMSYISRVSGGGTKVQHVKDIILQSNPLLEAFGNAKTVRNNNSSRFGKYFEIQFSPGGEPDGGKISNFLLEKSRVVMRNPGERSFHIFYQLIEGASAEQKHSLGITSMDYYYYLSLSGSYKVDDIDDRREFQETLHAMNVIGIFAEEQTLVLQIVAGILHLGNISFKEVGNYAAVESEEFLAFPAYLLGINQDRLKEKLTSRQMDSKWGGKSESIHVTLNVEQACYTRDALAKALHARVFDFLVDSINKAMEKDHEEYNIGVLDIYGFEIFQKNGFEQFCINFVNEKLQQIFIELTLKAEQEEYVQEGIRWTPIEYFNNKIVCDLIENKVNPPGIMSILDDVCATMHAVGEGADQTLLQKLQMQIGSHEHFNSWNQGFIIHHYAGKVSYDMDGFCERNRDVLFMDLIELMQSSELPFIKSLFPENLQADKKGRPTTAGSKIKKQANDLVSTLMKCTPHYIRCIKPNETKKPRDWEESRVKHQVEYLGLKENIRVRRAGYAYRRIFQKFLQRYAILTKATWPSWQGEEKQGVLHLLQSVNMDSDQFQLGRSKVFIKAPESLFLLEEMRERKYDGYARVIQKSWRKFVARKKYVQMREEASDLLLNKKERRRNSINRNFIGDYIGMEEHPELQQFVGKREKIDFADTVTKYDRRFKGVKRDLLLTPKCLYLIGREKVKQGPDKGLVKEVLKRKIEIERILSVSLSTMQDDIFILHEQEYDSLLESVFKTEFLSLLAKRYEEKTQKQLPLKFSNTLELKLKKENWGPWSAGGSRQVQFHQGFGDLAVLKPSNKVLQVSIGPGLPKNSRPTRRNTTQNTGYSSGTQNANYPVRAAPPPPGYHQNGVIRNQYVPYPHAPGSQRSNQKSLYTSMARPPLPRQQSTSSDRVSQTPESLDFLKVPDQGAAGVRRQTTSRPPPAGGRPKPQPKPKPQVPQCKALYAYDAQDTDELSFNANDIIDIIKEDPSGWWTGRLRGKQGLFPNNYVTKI

With `O=C(c1ccc(S(=O)(=O)n2cncn2)cc1)N1CCC(c2ccccc2)CC1` [HHS-0701, (4-((1H-1,2,4-triazol-1-yl)sulfonyl)phenyl)(4-phenylpiperidin-1-yl)methanone], on P12081, the “liganded tyrosine site 168” value is on record as “HHS0701.Y (tyrosine sites that showed >80% reductions (SR >5) in probe labeling in cells treated with compounds (liganded sites))” and the “liganded tyrosine site 172” value is “HHS0701.Y (tyrosine sites that showed >80% reductions (SR >5) in probe labeling in cells treated with compounds (liganded sites))”. Also, the “liganded tyrosine site 559” value on Q12931 is “HHS0701.Y (tyrosine sites that showed >80% reductions (SR >5) in probe labeling in cells treated with compounds (liganded sites))”.

Regarding `O=C(NCC1CC1)c1ccc(S(=O)(=O)n2cncn2)cc1` [HHS-0201, 4-((1H-1,2,4-triazol-1-yl)sulfonyl)-N-(cyclopropylmethyl)benzamide], in the experiment on Q8NFI4, the “liganded tyrosine site 213” value is given as “HHS0201.Y (tyrosine sites that showed >80% reductions (SR >5) in probe labeling in cells treated with compounds (liganded sites))”.

With `O=C(NC1CC1)c1ccc(S(=O)(=O)n2cncn2)cc1` [HHS-0101, 4-((1H-1,2,4-triazol-1-yl)sulfonyl)-N-cyclopropylbenzamide], in the experiment with A6NKT7, the “liganded tyrosine site 1008” value is recorded as “HHS0101.Y (tyrosine sites that showed >80% reductions (SR >5) in probe labeling in cells treated with compounds (liganded sites))”. Moreover, the “liganded tyrosine site 183” value in the experiment with Q5VTE0 is “HHS0101.Y (tyrosine sites that showed >80% reductions (SR >5) in probe labeling in cells treated with compounds (liganded sites))”. The “liganded tyrosine site 127” value with Q6IS14 is “HHS0101.Y|HHS0201.Y|HHS0701.Y (tyrosine sites that showed >80% reductions (SR >5) in probe labeling in cells treated with compounds (liganded sites))”. In addition, at Q93052, the “liganded tyrosine site 251” value is recorded as “HHS0101.Y|HHS0401.Y (tyrosine sites that showed >80% reductions (SR >5) in probe labeling in cells treated with compounds (liganded sites))” and the “liganded tyrosine site 332” value is on record as “HHS0101.Y (tyrosine sites that showed >80% reductions (SR >5) in probe labeling in cells treated with compounds (liganded sites))”. Moreover, at Q9Y5K6, the “liganded tyrosine site 361” value is “HHS0101.Y|HHS0201.Y|HHS0401.Y (tyrosine sites that showed >80% reductions (SR >5) in probe labeling in cells treated with compounds (liganded sites))”.

Regarding `O=C(NC1CCCCC1)c1ccc(S(=O)(=O)n2cncn2)cc1` [HHS-0301, 4-((1H-1,2,4-triazol-1-yl)sulfonyl)-N-cyclohexylbenzamide], the “liganded tyrosine site 173” value with Q9Y5K3 is “HHS0301.Y (tyrosine sites that showed >80% reductions (SR >5) in probe labeling in cells treated with compounds (liganded sites))”. In addition, the “liganded tyrosine site 9” value on Q12965 is “HHS0301.Y (tyrosine sites that showed >80% reductions (SR >5) in probe labeling in cells treated with compounds (liganded sites))”. On Q93052, the “liganded tyrosine site 234” value is “HHS0301.Y|HHS0401.Y (tyrosine sites that showed >80% reductions (SR >5) in probe labeling in cells treated with compounds (liganded sites))”. For the same compound, the “liganded tyrosine site 22” value at Q9BTC8 was “HHS0301.Y (tyrosine sites that showed >80% reductions (SR >5) in probe labeling in cells treated with compounds (liganded sites))”.

In the case of `O=C(NCc1ccccc1)c1ccc(S(=O)(=O)n2cncn2)cc1` [HHS-0401, 4-((1H-1,2,4-triazol-1-yl)sulfonyl)-N-benzylbenzamide], the “liganded tyrosine site 264” value with O15523 is listed as “HHS0401.Y (tyrosine sites that showed >80% reductions (SR >5) in probe labeling in cells treated with compounds (liganded sites))”. In addition, in the experiment on Q8N0Y7, the “liganded tyrosine site 119” value is recorded as “HHS0401.Y (tyrosine sites that showed >80% reductions (SR >5) in probe labeling in cells treated with compounds (liganded sites))”.
